Experimental data: PMC10051798, “Thiosemicarbazide Derivatives Targeting Human TopoIIα and IDO-1 as Small-Molecule Drug Candidates for Breast Cancer Treatment” (International Journal of Molecular Sciences, 2023)
Values after ≈ are worked out from the molar mass of the structure shown.

Columns and labels:
[1] = system: MCF-7 cells; design: method as in PMID 36345785; details: MTT; cited from earlier work
[2] = target: T1, MDR1 (p-glycoprotein) in MCF-7 cells (Homo sapiens, UniProt P08183); test: MDR transporter activity assay, MDR1 in MCF-7; assay type: cell-based; details: MCF-7, 10 µg/mL, 24 h
T1 construct: endogenous in cells; host or cells: MCF-7 and MDA-MB-231 cells
Description: (§1) An MDR Assay kit (Abcam, Cambridge, UK) was used following the manufacturer’s instructions. MCF-7 and MDA-MB-231 cells were incubated with compounds 1–3 (10 μg/mL and 20 μg/mL). After 24 h of incubation, the test cells were washed twice with 5 mL of PBS by centrifugation at 1200 rpm for 10 min. The supernatants were discarded and the cells were counted using a Scepter 3.0 handheld automated cell counter (Milipore, Burlington, MA, USA). Then, each of the tested samples was divided into three parts and analyzed. Tomeasure the activity of MDR1, MRP1 and BCRP (tubes 1–12), 5 μL of verapamil (MDR1 inhibitor) was added into tubes 1–3, 5 μL of MK-571 (MRP1 inhibitor) was added into tubes 4–6, 5 μL of noviobiocin (BCRP inhibitor) was added into tubes 7–9 and 125 μL DMEM with 1 μL of DMSO was added into tubes 10–12. Then, the samples were incubated at 37 °C for five minutes. After this time, 125 μL of Efflux Green Detection Reagent was added into tubes 1–12 and the samples were incubated for 30 min at 37 °C. After 25 min of incubation, 5 μL of PI was added to each tube. Thereafter, the samples were centrifuged for 10 min at 1200 rpm. The supernatants were discarded and the cells were resuspended in 500 μL of PBS and run on the flow cytometer immediately. Measurements were conducted on a BD FACSCanto II flow cytometer using FACSDiva software (version 6.1.3, BD Biosciences, San Diego, CA, USA). […]

[3] = target: T2, MDR1 (p-glycoprotein) in MDA-MB-231 cells (Homo sapiens, UniProt P08183); test: MDR transporter activity assay, MDR1 in MDA-MB-231; assay type: cell-based; details: 24 h
T2 construct: endogenous in cells; host or cells: MCF-7 and MDA-MB-231 cells
Description: (§2) An MDR Assay kit (Abcam, Cambridge, UK) was used following the manufacturer’s instructions. MCF-7 and MDA-MB-231 cells were incubated with compounds 1–3 (10 μg/mL and 20 μg/mL). After 24 h of incubation, the test cells were washed twice with 5 mL of PBS by centrifugation at 1200 rpm for 10 min. The supernatants were discarded and the cells were counted using a Scepter 3.0 handheld automated cell counter (Milipore, Burlington, MA, USA). Then, each of the tested samples was divided into three parts and analyzed. Tomeasure the activity of MDR1, MRP1 and BCRP (tubes 1–12), 5 μL of verapamil (MDR1 inhibitor) was added into tubes 1–3, 5 μL of MK-571 (MRP1 inhibitor) was added into tubes 4–6, 5 μL of noviobiocin (BCRP inhibitor) was added into tubes 7–9 and 125 μL DMEM with 1 μL of DMSO was added into tubes 10–12. Then, the samples were incubated at 37 °C for five minutes. After this time, 125 μL of Efflux Green Detection Reagent was added into tubes 1–12 and the samples were incubated for 30 min at 37 °C. After 25 min of incubation, 5 μL of PI was added to each tube. Thereafter, the samples were centrifuged for 10 min at 1200 rpm. The supernatants were discarded and the cells were resuspended in 500 μL of PBS and run on the flow cytometer immediately. Measurements were conducted on a BD FACSCanto II flow cytometer using FACSDiva software (version 6.1.3, BD Biosciences, San Diego, CA, USA). […] The calculations followed these formulas:MAFMDR1= 100 × (FMDR1 − F0)/FMDR1 MAFMRP= 100 × (FMRP − F0)/FMRP MAFBCRP= 100 × (FBCRP − F0)/FBCRP
(§3) • FMDR—MFI with MDR1 inhibitor (verapamil) • FMRP—MFI with MRP inhibitor (MK-571) • FBCRP—MFI with BCRP inhibitor (novobiocin) • F0—MFI without inhibitor
(§4) The theoretical range of the MAF values is between 0 and 100.

[4] = system: MCF-7 cells; test: Cell cycle analysis (PI flow cytometry), MCF-7; assay type: cell-based, human; details: 24 h
Description: Cell cycle analyses of MCF-7 and MDA-MB-231 cells treated with compounds 1–3 and etoposide for 24 h were performed using a FACSCanto II flow cytometer (BD Bioscences Systems, San Diego, CA, USA). After incubation, breast cancer cells were trypsinized and fixed with cold ethanol (70%) and stored overnight at −20 °C. After removing ethanol, the cells were washed three times with PBS, treated with 50 μg/mL of DNase-free RNase A Solution (Promega, Madison, WI, USA) and stained with 100 μg/mL of PI. The results of measurements were analyzed using FCS Express 7 software (De Novo Software, Pasadena, CA, USA).

[5] = target: T3, BCRP in MCF-7 cells (Homo sapiens, UniProt Q9UNQ0); test: MDR transporter activity assay, BCRP in MCF-7; assay type: cell-based; details: MCF-7, 10 µg/mL, 24 h
T3 construct: endogenous in cells; host or cells: MCF-7 and MDA-MB-231 cells
T3 sequence (Q9UNQ0 1-655): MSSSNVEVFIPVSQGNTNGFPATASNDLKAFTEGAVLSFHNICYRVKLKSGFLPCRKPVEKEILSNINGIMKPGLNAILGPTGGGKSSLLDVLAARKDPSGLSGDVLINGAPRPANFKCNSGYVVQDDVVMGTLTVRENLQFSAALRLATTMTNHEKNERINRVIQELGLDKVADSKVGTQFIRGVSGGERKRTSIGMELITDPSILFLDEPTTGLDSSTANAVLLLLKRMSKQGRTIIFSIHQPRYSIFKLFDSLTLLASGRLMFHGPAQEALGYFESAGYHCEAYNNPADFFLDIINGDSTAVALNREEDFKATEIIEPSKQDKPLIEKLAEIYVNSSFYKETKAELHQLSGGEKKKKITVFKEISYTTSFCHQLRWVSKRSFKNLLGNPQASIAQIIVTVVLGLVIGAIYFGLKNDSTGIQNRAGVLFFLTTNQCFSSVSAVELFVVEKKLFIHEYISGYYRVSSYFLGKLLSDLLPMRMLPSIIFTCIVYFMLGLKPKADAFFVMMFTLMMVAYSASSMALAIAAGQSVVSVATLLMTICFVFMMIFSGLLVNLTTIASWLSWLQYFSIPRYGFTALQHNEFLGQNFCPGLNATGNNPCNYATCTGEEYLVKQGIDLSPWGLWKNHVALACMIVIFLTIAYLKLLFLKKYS
Description: as §1

[6] = system: MRP1/2 in MCF-7 cells; test: MDR transporter activity assay, MRP in MCF-7; assay type: cell-based, human; details: MCF-7, 10 µg/mL, 24 h
Description: as §1

[7] = system: MDA-MB-231 cells; design: method as in PMID 36345785; details: MTT; cited from earlier work
[8] = target: T4, BCRP in MDA-MB-231 cells (Homo sapiens, UniProt Q9UNQ0); test: MDR transporter activity assay, BCRP in MDA-MB-231; assay type: cell-based; details: 24 h
T4 construct: endogenous in cells; host or cells: MCF-7 and MDA-MB-231 cells
T4 sequence (Q9UNQ0 1-655): T3 sequence (Q9UNQ0 1-655)
Description: as §2, §3, §4

[9] = system: MRP1/2 in MDA-MB-231 cells; test: MDR transporter activity assay, MRP in MDA-MB-231; assay type: cell-based, human; details: 24 h
Description: as §2, §3, §4

T2 sequence (P08183 whole entry): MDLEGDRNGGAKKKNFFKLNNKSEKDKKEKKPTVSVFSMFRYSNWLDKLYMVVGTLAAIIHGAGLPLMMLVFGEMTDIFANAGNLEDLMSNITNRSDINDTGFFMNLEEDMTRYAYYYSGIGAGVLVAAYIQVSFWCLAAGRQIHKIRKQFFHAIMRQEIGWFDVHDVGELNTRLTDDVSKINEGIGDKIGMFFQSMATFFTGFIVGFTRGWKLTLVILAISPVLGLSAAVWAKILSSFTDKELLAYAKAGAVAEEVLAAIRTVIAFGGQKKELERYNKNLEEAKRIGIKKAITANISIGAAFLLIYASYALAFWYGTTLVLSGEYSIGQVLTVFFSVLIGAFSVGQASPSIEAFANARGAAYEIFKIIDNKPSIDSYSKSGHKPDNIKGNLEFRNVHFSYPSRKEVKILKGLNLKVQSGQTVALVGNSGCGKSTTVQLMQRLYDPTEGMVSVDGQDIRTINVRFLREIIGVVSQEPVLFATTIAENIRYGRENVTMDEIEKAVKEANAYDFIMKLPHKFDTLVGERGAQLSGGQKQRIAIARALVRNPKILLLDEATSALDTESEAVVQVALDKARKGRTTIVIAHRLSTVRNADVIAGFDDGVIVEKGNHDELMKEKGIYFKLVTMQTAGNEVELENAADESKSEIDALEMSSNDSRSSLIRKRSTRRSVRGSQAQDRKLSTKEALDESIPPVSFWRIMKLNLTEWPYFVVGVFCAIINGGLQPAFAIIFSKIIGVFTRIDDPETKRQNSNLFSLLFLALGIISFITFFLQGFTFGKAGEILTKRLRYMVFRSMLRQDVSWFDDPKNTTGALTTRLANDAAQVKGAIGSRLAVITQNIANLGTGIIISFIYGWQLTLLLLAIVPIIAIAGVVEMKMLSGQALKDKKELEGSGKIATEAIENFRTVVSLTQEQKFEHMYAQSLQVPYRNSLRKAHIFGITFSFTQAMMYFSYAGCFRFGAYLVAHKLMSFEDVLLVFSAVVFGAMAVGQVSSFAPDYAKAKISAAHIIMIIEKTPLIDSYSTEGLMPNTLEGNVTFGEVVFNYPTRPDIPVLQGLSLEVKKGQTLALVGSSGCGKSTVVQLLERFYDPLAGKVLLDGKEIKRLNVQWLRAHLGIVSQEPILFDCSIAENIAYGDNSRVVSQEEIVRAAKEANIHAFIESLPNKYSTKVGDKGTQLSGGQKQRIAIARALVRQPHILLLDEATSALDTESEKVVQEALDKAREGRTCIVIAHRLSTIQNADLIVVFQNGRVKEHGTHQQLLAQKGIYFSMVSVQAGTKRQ
T1 sequence (P08183 whole entry): as above

Row | Structure (SMILES) | IC50 [1] | IC50 MCF-7 [1] | MAF MDR1 (multidrug resistance activity factor) [2] | MAF MDR1 ([3]; MDA-MB-231, 20 µg/mL) | cells in G2/M phase ([4]; MCF-7, 10 µg/mL) | cells in S phase ([4]; MCF-7, 20 µg/mL) | MAF BCRP [5] | MAF MRP [6] | IC50 [7] | IC50 MDA-MB-231 [7] | MAF BCRP ([8]; MDA-MB-231, 20 µg/mL) | MAF MRP ([9]; MDA-MB-231, 20 µg/mL) | MAF MDR1 ([3]; MDA-MB-231, 10 µg/mL) | cells in G2/M phase ([4]; MCF-7, 20 µg/mL) | MAF BCRP ([8]; MDA-MB-231, 10 µg/mL) | MAF MRP ([9]; MDA-MB-231, 10 µg/mL)
1 | O=C(NNC(=S)Nc1ccc(/N=N/c2ccccc2)cc1)c1ccccc1[N+](=O)[O-] [Compound 3] | 18.2 ± 1.36 µM | 7.67 ± 0.57 µg/mL (≈ 18.2 µM) | 5.7 | < 20 | 35.3% | 49.1% | 7.0 | 5.3 | 24.9 ± 1.74 µM | 10.47 ± 0.73 µg/mL (≈ 24.9 µM) | < 20 | < 20 | – | – | – | –
2 | O=C(Cc1cccc2ccccc12)NNC(=S)Nc1ccc(/N=N/c2ccccc2)cc1 [Compound 2] | 20.9 ± 0.59 µM | 9.18 ± 0.26 µg/mL (≈ 20.9 µM) | 9.1 | 11.1 | – | 40.7% | 15.4 | 9.9 | 17.4 ± 0.93 µM | 7.64 ± 0.41 µg/mL (≈ 17.4 µM) | 1.4 | 1.8 | 13.3 | 32.2% | 4.9 | 7.0
